Where a name gives a salt, the structure may show the parent alone. Read-outs that look alike come from different tables or passages of the source.
What was measured:
MDA-MB-435 cells = assay: MTS growth inhibition assay; format: cell-based; details: Homo sapiens, P-gp substrates, Table 2
Method: (§1) Growth inhibition may be analyzed using conventional methods, for example a MTS assay (PROMEGA, Wis.) may be used. In this assay approximately 4000 cells per well are seeded in 96 well plates in MEM supplemented with 10% fetal calf serum and incubated at 37° C. in 5.0% CO2. After 24 hours, dilutions of drug (concentration range used is between 1 nM and 1000 nM) are added and cells are allowed to incubate with drug for an additional 72 hours. The MTS reagent mixed with PMS (MTS:PMS 20:1 according to manufacturer's instructions) is then added and absorbance quantitated using a Thermomax microplate reader system according to conventional methods (Molecular Devices, Sunnyvale, Calif.). […] Six assays per drug per plate are performed.
Thus, at least two potential mechanisms of epothilone A resistance may exist—a lower resistance mechanism that is cross-resistant to TAXOL® and a higher, epothilone A specific resistance mechanism.

EA40 cells = assay: MTS growth inhibition assay; format: cell-based; details: for IC50: EA40 cells, P-gp substrates, Table 2; for resistance profile in words: EA40 vs MDA-MB-435 / EA150
Method: as §1, with “performed. […]” for “performed.”
(§2) As such, epothilone resistant cells would have some degree of cross-resistance to other P-gp substrates that could be reversed by P-gp inhibitors. To investigate this possibility, the cytotoxicity of the P-gp substrates, vincristine, doxorubicine and vinblastine is determined against epothilone A resistant cells using the MTS assay. […] When EA20 and resistant MDA/T0.3 cells are incubated with TAXOL® or epothilone A in the presence of [3′-Desoxy-3′-oxo-MeBmt]^1-[Val]^2-Ciclosporin (PSC-833; a P-gp inhibitor which is disclosed in U.S. Pat. No. 5,525,590), the resistance of MDA/T0.3 cells to TAXOL® is reversed but no effect on the resistance of EA20 to epothilone A is observed.

MDA/T0.3 cells = assay: MTS growth inhibition assay; format: cell-based
Method: as §1, with “After 24 hours, dilutions of drug (concentration range used is between 1 nM and 1000 nM) are added and cells are allowed to incubate with drug for an additional 72 hours.” left out
as §2
MDA/T0.3 is a clonal subline of MDA-MB-435 cells selected by increasing exposure of MDA-MB-435 cells to TAXOL®. MDA/T0.3 cells express high levels of P-glycoprotein and are resistant to a variety of chemically and functionally unrelated compounds. MDA/T0.3 cells could be sensitized to a variety of cytotoxic agents by treatment with the P-glycoprotein reversing agent PSC-833.

KB-8511 cells = format: cell-based, human; details: for resistance profile in words: KB-8511 vs parental KB-31; for RF (resistance factor: IC50 resistant cell line / IC50 parental KB-31): KB-8511 (Colch selected), 72 hrs, average of three experiments
Method: (§3) Data in Table 4 are gathered according to the following methods: Cells (1×10^3) are seeded in 96-well plates and allowed to adhere for 24 hrs. Compounds are then added as two-fold serial dilutions and incubation continued for an additional 72 hrs. Cell numbers at the beginning and at the end of the experiment are estimated by methylene blue staining of cellular protein mass according to conventional methods. The net mass increase of vehicle-treated cells is set as 100% growth. The IC50 is determined as the drug concentration that leads to half-maximal growth inhibition compared to the control. The resistance factor (RF) for a particular drug is calculated by dividing the IC50 determined on the resistant cell line by that determined on the parental KB-31 cells. Data are presented as average±standard deviation (SD) of three separate experiments, except na=not applicable (n<3). Colchicine-selected KB-8511 cells overexpressing P-glycoprotein served as a reference for the classical multi-drug-resistant phenotype.

297/C5/0 cells = format: cell-based, human; details: for resistance profile in words: 297/C5/0 vs parental KB-31; for RF (resistance factor: IC50 resistant cell line / IC50 parental KB-31): 297/C5/0 (EpoA selected), 72 hrs, average of three experiments
Method: (§4) Anti-proliferative assays are performed basically as described (Meyer et al., Int. J. Cancer 43:851 (1989)). Briefly, cells are seeded at 1.5×10^3 cells/well into 96-well microtiter plates and allowed to adhere by incubation overnight. Compounds are added in serial dilutions on day 1. The plates are then incubated for an additional 3 days, after which the cells are fixed with 3.3% v/v glutaraldehyde, washed with water and stained with 0.05% w/v methylene blue according to conventional methods. After washing, the dye is eluted with 3% HCl and the optical density measured at 665 nm with a SpectraMax Plus (Molecular Devices, Sunnyvale, Calif.) according to manufacturers instructions. IC50 values are determined by mathematical curve-fitting using the SoftPro2.6.1 program (Molecular Devices, Sunnyvale, Calif.) using the formula (OD treated−OD start)/(OD control−OD start)×100. […] IC50 determinations with the cell line 298/D4/40 are performed in the presence of 40 nM epothilone A.
as §3

298/D4/40 cells = format: cell-based, human; details: for resistance profile in words: 298/D4/40 vs parental KB-31; for RF (resistance factor: IC50 resistant cell line / IC50 parental KB-31): 298/D4/40 (EpoA selected), 72 hrs, in the presence of 40 nM epothilone A
Method: as §4, §3

315/sc5.9 cells = format: cell-based, human; details: for resistance profile in words: 315/sc5.9 vs parental KB-31; for RF (resistance factor: IC50 resistant cell line / IC50 parental KB-31): 315/sc5.9 (EpoB selected), 72 hrs, average of three experiments
Method: as §4, §3

[1] = MDA/T0.3 cells, P-gp substrates, Table 2, read-out: IC50

Row | SMILES | IC50 (MDA-MB-435 cells) | IC50 (EA40 cells) | IC50 (MDA/T0.3 cells) | resistance profile in words (KB-8511 cells) | resistance profile in words (297/C5/0 cells) | resistance profile in words (298/D4/40 cells) | resistance profile in words (315/sc5.9 cells) | RF (resistance factor: IC50 resistant cell line / IC50 parental KB-31) (KB-8511 cells) | RF (resistance factor: IC50 resistant cell line / IC50 parental KB-31) (297/C5/0 cells) | RF (resistance factor: IC50 resistant cell line / IC50 parental KB-31) (298/D4/40 cells) | RF (resistance factor: IC50 resistant cell line / IC50 parental KB-31) (315/sc5.9 cells) | resistance profile in words (EA40 cells) | IC50 (MDA/T0.3 cells; [1])
1 | COc1cccc2c1C(=O)c1c(O)c3c(c(O)c1C2=O)C[C@@](O)(C(C)=O)C[C@@H]3O[C@H]1C[C@H](N)[C@H](O)[C@H](C)O1 [Daunorubicin] | 382 ± 101 nM | 224 ± 72 nM | > 5000 nM | – | – | – | – | – | – | – | – | – | –
2 | CN[C@H]1CCc2cc(OC)c(OC)c(OC)c2-c2ccc(OC)c(=O)cc21 [Demecolcine, demecolcine] | – | – | – | resistant | hypersensitive | hypersensitive | slightly hypersensitive | – | – | – | – | – | –
3 | C=C/C=C\[C@H](C)[C@H](OC(N)=O)[C@@H](C)[C@H](O)[C@@H](C)C/C(C)=C\[C@H](C)[C@@H](O)[C@@H](C)/C=C\[C@@H](O)C[C@@H]1OC(=O)[C@H](C)[C@@H](O)[C@H]1C [Discodermolide] | – | – | – | – | not cross-resistant | not cross-resistant | – | 2.8 | 1.3 | 0.5 | 1.2 | – | –
4 | [NH2][Pt]1([NH2])[O]C(=O)C2(CCC2)C(=O)[O]1 [Paraplatine, Paraplatin] | – | – | – | – | Neither cell line is cross-resistant | very minor increase in the resistance | – | 0.8 | 1.2 | 3.8 | 0.7 | – | –
5 | COc1cccc2c1C(=O)c1c(O)c3c(c(O)c1C2=O)C[C@@](O)(C(=O)CO)C[C@@H]3O[C@H]1C[C@H](N)[C@H](O)[C@H](C)O1 [Doxorubicin, doxorubicin] | > 500 nM | 365 ± 200 nM | – | resistant | Neither cell line is cross-resistant | Neither cell line is cross-resistant | marginal cross-resistance | 48.8 | 1.6 | 1.2 | 1.8 | equally sensitive | > 5000 nM
6 | CC[C@]1(O)C[C@@H]2CN(CCc3c([nH]c4ccccc34)[C@@](C(=O)OC)(c3cc4c(cc3OC)N(C)[C@H]3[C@@](O)(C(=O)OC)[C@H](OC(C)=O)[C@]5(CC)C=CCN6CC[C@]43[C@@H]65)C2)C1 [Vinblastine, Vinblastine sulfate] | < 1 nM | < 1 nM | – | resistant | hypersensitive | hypersensitive | – | 162.4 | 0.7 | 0.2 | 0.6 | equally sensitive | 14 ± 2.7 nM
7 | CC[C@]1(O)C[C@H]2CN(CCc3c([nH]c4ccccc34)[C@@](C(=O)OC)(c3cc4c(cc3OC)N(C=O)[C@H]3[C@@](O)(C(=O)OC)[C@H](OC(C)=O)[C@]5(CC)C=CCN6CC[C@]43[C@@H]65)C2)C1 [Vincristine, vincristine] | 3 ± 2 nM | 4 ± 1.7 nM | – | – | – | – | slightly hypersensitive | – | – | – | – | equally sensitive | –
8 | O=c1[nH]cc(F)c(=O)[nH]1 [5-FU, 5-Fluorouracil] | – | – | – | – | Neither cell line is cross-resistant | Neither cell line is cross-resistant | slightly hypersensitive | 1.1 | 1.2 | 0.9 | 0.4 | – | –
